Tests used:
α3β4 nACh receptors [1] = target: T1, α3β4 nACh receptors (Rattus norvegicus, UniProt P04757+P12392); assay: whole-cell patch-clamp of transfected HEK293 cells, ganglionic α3β4 nACh receptors, 1 mM ACh; assay type: cell-based
T1 construct: expressed in transfected cells; host or cells: HEK293 (ATCC CRL1573), transient transfection
Protocol: Human embryonic kidney 293 (HEK293) fibroblasts (ATCC CRL1573) were cultured in minimal essential medium supplemented with 10% fetal bovine serum and 2 mM glutamine (Life Technologies, Rockville, Md.). Cells were plated on poly-D-lysine-coated 35 mm nunc dishes, transfected by the LipofectaminePLUS method (Life Technologies), and examined functionally between 18-48 h post transfection. The following receptor subunit cDNAs were used: nAChR-α3 (nicotinic acetylcholine receptor-α3; accession no. L31621), nAChR-α4 (accession no. L31620), nAChR-β2 (accession no. L31622), nAChR-β4 (accession no. U42976), 5-HT3R-A (5-HT3A receptor; accession no. M74425), NR1 (N-methyl-D-aspartate receptor 1; accession no. X63255), NR2A (accession no. X91561), and NR2B (accession no. M91562). The nAchR and NR clones were rat; the 5-HT3R-A clone was mouse. Co-transfection of enhanced green fluorescent protein (“EGFP”) (10% of total cDNA) provided a marker to identify transfected cells. Transfected cells were selected for EGFP expression and examined by voltage-clamp recording in the whole-cell configuration using an Axopatch 200B patch-clamp amplifier (Axon Instruments, Foster City, Calif.). Thin-walled borosilicate glass microelectrodes (TW150F, World Precision Instruments, Sarasota, Fla.) had resistances of 3-5 MΩ when filled with an internal solution containing (in mM): 135 CsCl, 10 CsF, 10 HEPES (N-[2-hydroxyethyl]piperazine-N′-[2-ethanesulfonic acid]), 5 EGTA (ethylene glycol-bis[β-aminoethyl ether]-N,N,N′,N′-tetraacetic acid), 1 MgCl2, 0.5 CaCl2, pH 7.2. Whole-cell capacitance and series resistance were recorded and adequately compensated using the available circuitry of the amplifier. Current responses were filtered at 1 kHz with an 8-pole Bessel filter (Cygnus Technologies, Delaware Water Gap, Pa.), digitized at 3 kHz, and stored on a Macintosh PowerPC-G3 computer using an ITC-16 interface (Instrutech, Great Neck, N.Y.) under control of the data acquisition and analysis program Synapse (Synergy Research, Gaithersburg, Md.). […] Rapid switching between inputs was achieved using a set of upstream solenoid valves (Lee Co., Westbrook, Conn.) under computer control; the solution exchange rate was ˜5 ms as measured from liquid junction currents.
Transfected HEK293 cells expressing various receptor subunit cDNAs were examined by whole-cell patch-clamp recording with fast perfusion of agonist and drug solutions. […] In FIG. 1A, open bars depict the timing of ACh application; filled bars depict the timing of co-application of 20 μM IBO or 20 μM 18MC; and inhibition was measured relative to control at the end of the drug application (indicated by arrows). […]

α3β4 nACh receptors [2] = target: T2, α3β4 nACh receptors (Rattus norvegicus, UniProt P09483+P12390); assay: whole-cell patch-clamp of transfected HEK293 cells, neuronal nACh receptors, 300 μM ACh; assay type: cell-based
T2 construct: expressed in transfected cells; host or cells: HEK293 (ATCC CRL1573), transient transfection
Protocol: (§1) Human embryonic kidney 293 (HEK293) fibroblasts (ATCC CRL1573) were cultured in minimal essential medium supplemented with 10% fetal bovine serum and 2 mM glutamine (Life Technologies, Rockville, Md.). Cells were plated on poly-D-lysine-coated 35 mm nunc dishes, transfected by the LipofectaminePLUS method (Life Technologies), and examined functionally between 18-48 h post transfection. The following receptor subunit cDNAs were used: nAChR-α3 (nicotinic acetylcholine receptor-α3; accession no. L31621), nAChR-α4 (accession no. L31620), nAChR-β2 (accession no. L31622), nAChR-β4 (accession no. U42976), 5-HT3R-A (5-HT3A receptor; accession no. M74425), NR1 (N-methyl-D-aspartate receptor 1; accession no. X63255), NR2A (accession no. X91561), and NR2B (accession no. M91562). The nAchR and NR clones were rat; the 5-HT3R-A clone was mouse. Co-transfection of enhanced green fluorescent protein (“EGFP”) (10% of total cDNA) provided a marker to identify transfected cells. Transfected cells were selected for EGFP expression and examined by voltage-clamp recording in the whole-cell configuration using an Axopatch 200B patch-clamp amplifier (Axon Instruments, Foster City, Calif.). Thin-walled borosilicate glass microelectrodes (TW150F, World Precision Instruments, Sarasota, Fla.) had resistances of 3-5 MΩ when filled with an internal solution containing (in mM): 135 CsCl, 10 CsF, 10 HEPES (N-[2-hydroxyethyl]piperazine-N′-[2-ethanesulfonic acid]), 5 EGTA (ethylene glycol-bis[β-aminoethyl ether]-N,N,N′,N′-tetraacetic acid), 1 MgCl2, 0.5 CaCl2, pH 7.2. Whole-cell capacitance and series resistance were recorded and adequately compensated using the available circuitry of the amplifier. Current responses were filtered at 1 kHz with an 8-pole Bessel filter (Cygnus Technologies, Delaware Water Gap, Pa.), digitized at 3 kHz, and stored on a Macintosh PowerPC-G3 computer using an ITC-16 interface (Instrutech, Great Neck, N.Y.) under control of the data acquisition and analysis program Synapse (Synergy Research, Gaithersburg, Md.). Cells were continuously superfused with extracellular solution containing (in mM): 150 NaCl, 3 KCl, 5 HEPES, 1 MgCl2, 1.8 CaCl2, 10 glucose, and 0.1 mg/ml phenol red, pH 7.3 (MgCl2 was omitted from all solutions used for the study of NMDA receptors). […] Control, agonist, and drug solutions were applied to individual cells by rapid perfusion. Solutions were driven by a syringe pump through a flowpipe having 4 inputs that converge at a single common output of approximately 100 μm diameter. Rapid switching between inputs was achieved using a set of upstream solenoid valves (Lee Co., Westbrook, Conn.) under computer control; the solution exchange rate was ˜5 ms as measured from liquid junction currents.
Transfected HEK293 cells expressing various receptor subunit cDNAs were examined by whole-cell patch-clamp recording with fast perfusion of agonist and drug solutions. […] Transfected HEK293 cells expressing α3β4 nACh receptors were voltage-clamped to −70 mV and stimulated with 1 mM ACh at 30 s intervals. […] In FIG. 1A, open bars depict the timing of ACh application; filled bars depict the timing of co-application of 20 μM IBO or 20 μM 18MC; and inhibition was measured relative to control at the end of the drug application (indicated by arrows). […] The data presented in FIG. 1B are mean±SEM for 3-14 cells per point, and curve fits are given for the logistic equation: I=Imax/(1+([drug]/IC50)). […] In this case, transfected HEK293 cells expressing α3β4 nACh receptors were voltage-clamped to −70 mV and stimulated with 300 μM ACh at 30 s intervals.

NR1/2A receptors = target: T3, NR1/2A receptors (Rattus norvegicus, UniProt P35439+Q00959); assay: whole-cell patch-clamp of transfected HEK293 cells, NR1/2A, 100 μM glutamate plus 10 μM glycine; assay type: cell-based
T3 construct: expressed in transfected cells; host or cells: HEK293 (ATCC CRL1573), transient transfection
Protocol: as §1
(§2) To study these, transfected HEK293 cells expressing NR1/2A or NR1/2B receptors were voltage-clamped to −70 mV and stimulated with 100 μM glutamate plus 10 μM glycine at 30 s intervals. […] In FIGS. 3A and 3B, open bars depict the timing of agonist application, filled bars depict the timing of co-application of 20 μM IBO or 20 μM 18MC, and inhibition was measured relative to control at the end of the drug application (indicated by arrows).

NR1/2B receptors = target: T4, NR1/2B receptors (Rattus norvegicus, UniProt P35439+Q00960); assay: whole-cell patch-clamp of transfected HEK293 cells, NR1/2B, 100 μM glutamate plus 10 μM glycine; assay type: cell-based
T4 construct: expressed in transfected cells; host or cells: HEK293 (ATCC CRL1573), transient transfection
Protocol: as §1, §2

5-HT3A receptors = target: T5, 5-HT3A receptors (Mus musculus, UniProt P23979); assay: whole-cell patch-clamp of transfected HEK293 cells, 5-HT3A, 100 μM serotonin; assay type: cell-based
T5 construct: expressed in transfected cells; host or cells: HEK293 (ATCC CRL1573), transient transfection
T5 sequence (P23979 24-489): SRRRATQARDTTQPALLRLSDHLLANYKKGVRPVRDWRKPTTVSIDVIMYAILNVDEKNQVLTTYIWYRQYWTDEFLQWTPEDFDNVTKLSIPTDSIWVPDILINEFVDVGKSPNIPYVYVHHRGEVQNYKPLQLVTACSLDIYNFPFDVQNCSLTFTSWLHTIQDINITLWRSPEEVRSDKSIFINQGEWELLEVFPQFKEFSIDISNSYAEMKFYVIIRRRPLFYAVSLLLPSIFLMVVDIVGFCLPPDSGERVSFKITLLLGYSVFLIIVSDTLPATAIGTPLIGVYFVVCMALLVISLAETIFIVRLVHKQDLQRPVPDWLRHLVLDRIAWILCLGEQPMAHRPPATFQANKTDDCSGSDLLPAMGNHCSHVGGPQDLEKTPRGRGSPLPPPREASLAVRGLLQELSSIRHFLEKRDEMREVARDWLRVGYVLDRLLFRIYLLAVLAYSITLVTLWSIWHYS
Protocol: as §1
as §2, with “Transfected” for “To study these, transfected”, “5-HT3A” for “NR1/2A or NR1/2B”, “serotonin” for “glutamate plus 10 μM glycine”, “This is shown in FIG. 4, where” for “In FIGS. 3A and 3B,”

[3] = target: NMDA-type glutamate receptors; conditions: literature (Popik, Chen); read-out: IC50 obtained in hippocampal neurons; cited from earlier work

T3 sequence (Q00959 20-1464 limits assumed, other chains not shown): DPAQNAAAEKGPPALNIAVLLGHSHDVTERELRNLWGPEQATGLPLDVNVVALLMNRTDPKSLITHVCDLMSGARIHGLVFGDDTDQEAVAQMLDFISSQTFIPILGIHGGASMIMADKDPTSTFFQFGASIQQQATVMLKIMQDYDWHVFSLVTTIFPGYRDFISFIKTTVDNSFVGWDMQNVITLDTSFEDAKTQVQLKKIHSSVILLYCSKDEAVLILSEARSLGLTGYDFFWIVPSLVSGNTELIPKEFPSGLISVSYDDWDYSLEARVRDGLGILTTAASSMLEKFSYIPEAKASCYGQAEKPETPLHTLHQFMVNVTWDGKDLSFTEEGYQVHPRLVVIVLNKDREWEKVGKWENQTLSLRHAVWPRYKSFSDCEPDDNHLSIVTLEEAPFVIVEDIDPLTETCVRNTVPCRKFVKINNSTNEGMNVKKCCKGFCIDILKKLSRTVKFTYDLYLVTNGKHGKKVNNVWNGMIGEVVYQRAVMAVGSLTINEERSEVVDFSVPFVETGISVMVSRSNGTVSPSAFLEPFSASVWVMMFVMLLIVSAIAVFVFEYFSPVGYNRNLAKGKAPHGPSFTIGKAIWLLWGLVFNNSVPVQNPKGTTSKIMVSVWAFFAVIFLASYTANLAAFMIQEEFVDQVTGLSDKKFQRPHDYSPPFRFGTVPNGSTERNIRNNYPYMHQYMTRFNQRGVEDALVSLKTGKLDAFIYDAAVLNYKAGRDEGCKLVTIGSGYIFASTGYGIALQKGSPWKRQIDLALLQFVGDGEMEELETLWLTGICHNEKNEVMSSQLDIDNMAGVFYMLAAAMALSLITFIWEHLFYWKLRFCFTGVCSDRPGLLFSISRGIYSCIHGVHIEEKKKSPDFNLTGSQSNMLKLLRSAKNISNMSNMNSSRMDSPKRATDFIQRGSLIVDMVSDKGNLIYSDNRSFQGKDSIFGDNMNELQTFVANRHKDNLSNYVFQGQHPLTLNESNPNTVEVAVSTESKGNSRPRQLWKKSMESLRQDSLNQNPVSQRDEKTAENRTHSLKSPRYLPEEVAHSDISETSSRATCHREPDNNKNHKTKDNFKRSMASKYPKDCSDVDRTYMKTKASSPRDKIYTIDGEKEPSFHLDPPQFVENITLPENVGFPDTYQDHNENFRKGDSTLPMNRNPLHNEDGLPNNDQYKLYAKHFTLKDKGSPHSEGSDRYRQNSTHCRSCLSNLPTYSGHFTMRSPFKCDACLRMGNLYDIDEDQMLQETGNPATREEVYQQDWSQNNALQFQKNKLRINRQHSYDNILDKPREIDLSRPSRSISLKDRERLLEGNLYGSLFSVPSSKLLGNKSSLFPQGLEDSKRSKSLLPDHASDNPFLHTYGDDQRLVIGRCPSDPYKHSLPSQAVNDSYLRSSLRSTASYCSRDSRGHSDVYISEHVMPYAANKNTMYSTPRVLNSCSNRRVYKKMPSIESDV
T2 sequence (P09483 31-630): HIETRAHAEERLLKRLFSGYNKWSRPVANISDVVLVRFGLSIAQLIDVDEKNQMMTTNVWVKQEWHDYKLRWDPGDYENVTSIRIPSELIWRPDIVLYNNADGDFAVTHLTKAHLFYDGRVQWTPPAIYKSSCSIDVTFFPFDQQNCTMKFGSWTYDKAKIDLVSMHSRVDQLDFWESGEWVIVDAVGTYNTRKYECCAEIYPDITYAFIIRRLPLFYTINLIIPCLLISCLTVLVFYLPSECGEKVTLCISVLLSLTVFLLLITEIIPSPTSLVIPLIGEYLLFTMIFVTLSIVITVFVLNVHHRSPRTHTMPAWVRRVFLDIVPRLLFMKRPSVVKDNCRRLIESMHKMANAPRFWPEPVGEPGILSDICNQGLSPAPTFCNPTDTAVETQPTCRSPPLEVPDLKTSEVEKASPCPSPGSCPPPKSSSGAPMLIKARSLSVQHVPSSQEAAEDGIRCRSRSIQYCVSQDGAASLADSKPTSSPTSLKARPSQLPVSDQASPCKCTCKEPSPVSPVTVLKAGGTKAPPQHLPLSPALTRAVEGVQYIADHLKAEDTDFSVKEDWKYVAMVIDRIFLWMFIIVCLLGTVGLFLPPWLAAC
T2 sequence (P12390 25-500): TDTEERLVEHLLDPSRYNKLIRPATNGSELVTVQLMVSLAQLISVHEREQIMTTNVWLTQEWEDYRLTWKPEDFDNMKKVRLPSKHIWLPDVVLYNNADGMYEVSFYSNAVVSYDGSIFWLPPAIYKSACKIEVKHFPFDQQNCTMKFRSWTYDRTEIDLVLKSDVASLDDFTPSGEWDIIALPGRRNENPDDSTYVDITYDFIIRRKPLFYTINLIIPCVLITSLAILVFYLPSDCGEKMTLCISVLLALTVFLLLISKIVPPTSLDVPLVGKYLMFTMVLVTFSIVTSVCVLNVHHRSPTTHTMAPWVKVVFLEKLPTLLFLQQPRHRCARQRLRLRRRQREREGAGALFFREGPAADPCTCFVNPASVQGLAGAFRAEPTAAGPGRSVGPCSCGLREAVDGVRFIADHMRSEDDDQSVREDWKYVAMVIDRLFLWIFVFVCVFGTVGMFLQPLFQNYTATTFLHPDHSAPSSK
T4 sequence (Q00960 27-1482, other chains not shown): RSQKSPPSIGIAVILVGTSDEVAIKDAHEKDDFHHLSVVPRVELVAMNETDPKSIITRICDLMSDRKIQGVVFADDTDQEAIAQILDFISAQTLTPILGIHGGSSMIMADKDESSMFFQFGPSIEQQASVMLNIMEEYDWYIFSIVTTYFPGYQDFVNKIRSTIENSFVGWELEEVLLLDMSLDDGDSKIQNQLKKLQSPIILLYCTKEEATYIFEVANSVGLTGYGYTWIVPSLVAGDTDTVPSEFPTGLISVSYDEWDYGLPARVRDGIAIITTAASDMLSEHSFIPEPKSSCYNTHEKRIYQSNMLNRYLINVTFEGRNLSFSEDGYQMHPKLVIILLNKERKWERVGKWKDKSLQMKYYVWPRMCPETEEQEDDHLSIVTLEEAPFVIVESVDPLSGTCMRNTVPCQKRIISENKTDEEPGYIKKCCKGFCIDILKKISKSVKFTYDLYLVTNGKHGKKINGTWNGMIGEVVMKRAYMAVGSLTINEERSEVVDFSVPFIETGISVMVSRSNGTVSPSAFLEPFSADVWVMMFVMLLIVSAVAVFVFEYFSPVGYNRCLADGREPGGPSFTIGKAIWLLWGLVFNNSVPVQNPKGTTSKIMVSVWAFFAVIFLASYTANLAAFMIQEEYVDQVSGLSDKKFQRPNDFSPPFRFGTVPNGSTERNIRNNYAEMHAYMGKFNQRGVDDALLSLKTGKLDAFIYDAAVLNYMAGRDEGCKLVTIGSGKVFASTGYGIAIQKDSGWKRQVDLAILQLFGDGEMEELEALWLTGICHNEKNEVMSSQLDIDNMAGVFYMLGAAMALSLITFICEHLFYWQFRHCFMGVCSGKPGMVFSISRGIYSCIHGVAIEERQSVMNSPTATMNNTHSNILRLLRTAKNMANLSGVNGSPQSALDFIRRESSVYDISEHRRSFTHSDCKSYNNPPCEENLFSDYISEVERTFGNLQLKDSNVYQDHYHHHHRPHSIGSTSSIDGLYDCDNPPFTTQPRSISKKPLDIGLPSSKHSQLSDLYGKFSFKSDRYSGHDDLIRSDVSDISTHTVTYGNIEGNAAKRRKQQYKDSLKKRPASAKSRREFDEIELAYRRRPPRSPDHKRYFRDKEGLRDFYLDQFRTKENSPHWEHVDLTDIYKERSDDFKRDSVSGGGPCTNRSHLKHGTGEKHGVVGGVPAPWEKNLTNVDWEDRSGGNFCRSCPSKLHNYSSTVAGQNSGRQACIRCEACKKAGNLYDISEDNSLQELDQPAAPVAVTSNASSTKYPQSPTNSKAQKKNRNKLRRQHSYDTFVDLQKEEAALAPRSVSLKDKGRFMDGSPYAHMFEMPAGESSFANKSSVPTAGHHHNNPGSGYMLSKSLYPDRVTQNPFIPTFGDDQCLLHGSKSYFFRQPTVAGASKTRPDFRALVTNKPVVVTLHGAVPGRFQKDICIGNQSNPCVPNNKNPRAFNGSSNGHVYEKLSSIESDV
T1 sequence (P04757 26-499): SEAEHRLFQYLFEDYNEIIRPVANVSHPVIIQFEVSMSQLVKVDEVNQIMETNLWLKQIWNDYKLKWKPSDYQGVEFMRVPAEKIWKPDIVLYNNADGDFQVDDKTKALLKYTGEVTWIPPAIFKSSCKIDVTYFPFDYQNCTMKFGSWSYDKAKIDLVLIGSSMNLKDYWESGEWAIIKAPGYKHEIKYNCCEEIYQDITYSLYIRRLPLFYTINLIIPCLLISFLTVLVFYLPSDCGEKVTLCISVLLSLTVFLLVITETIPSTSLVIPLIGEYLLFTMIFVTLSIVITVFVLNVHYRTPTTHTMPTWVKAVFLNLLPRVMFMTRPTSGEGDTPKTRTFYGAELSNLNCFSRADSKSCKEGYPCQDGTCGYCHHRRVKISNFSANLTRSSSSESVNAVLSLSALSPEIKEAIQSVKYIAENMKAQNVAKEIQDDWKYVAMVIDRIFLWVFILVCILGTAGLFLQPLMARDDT
T1 sequence (P12392 21-495): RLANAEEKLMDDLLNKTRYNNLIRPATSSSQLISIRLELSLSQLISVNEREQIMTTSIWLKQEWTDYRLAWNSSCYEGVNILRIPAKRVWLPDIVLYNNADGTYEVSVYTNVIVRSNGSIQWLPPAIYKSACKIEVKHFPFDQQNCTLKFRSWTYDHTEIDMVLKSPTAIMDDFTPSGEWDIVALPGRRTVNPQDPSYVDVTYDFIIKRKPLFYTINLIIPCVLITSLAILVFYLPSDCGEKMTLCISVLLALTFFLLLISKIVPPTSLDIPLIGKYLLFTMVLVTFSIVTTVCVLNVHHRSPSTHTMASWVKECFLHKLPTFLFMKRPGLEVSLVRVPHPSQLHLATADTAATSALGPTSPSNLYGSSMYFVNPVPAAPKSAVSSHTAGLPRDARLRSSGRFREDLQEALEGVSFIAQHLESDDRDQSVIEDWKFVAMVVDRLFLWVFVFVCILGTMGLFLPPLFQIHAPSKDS

ibogaine
response to drug applied alone (agonist activity) (α3β4 nACh receptors [1]; 20 μM drug alone, -70 mV): did not produce any response
inhibition of ACh-evoked responses on co-application (α3β4 nACh receptors [1]; 20 μM drug with 1 mM ACh, N=15, FIG. 1A): nearly abolished
inhibition of ACh-evoked response (α3β4 nACh receptors [2]; 5 μM drug with 300 μM ACh): 61±4%
response to drug applied alone (agonist activity) (α3β4 nACh receptors [2]; 20 μM drug alone, -70 mV): did not produce any response
inhibition of ACh-evoked response (α3β4 nACh receptors [2]; 20 μM drug with 300 μM ACh, FIG. 2): 93±3%
inhibition of agonist-evoked response (NR1/2A receptors; 10 μM drug, co-application): 51±9%
response to drug applied alone (agonist activity) (NR1/2A receptors; 20 μM drug alone): did not produce any response
reduction of agonist-evoked response (NR1/2A receptors; 20 μM drug, co-application): 98±3%
inhibition of agonist-evoked response (NR1/2B receptors; 10 μM drug, co-application): 82±3%
response to drug applied alone (agonist activity) (NR1/2B receptors; 20 μM drug alone): did not produce any response
reduction of agonist-evoked response (NR1/2B receptors; 20 μM drug, co-application): 95±2%
response to drug applied alone (agonist activity) (5-HT3A receptors; 20 μM drug alone): did not produce any response
inhibition of serotonin-evoked responses (5-HT3A receptors; 20 μM drug with 100 μM serotonin, FIG. 4): 53±3%
IC50 [3]: 3 to 5 µM

Reference: patent US6780871B2, “Methods and compositions for treating addiction disorders” (Albany Medical College, priority 2001, dated 2004)
